According to patent US12187717B2, “Compound and use thereof in treating autoimmune diseases” (PARENCHYMA BIOTECH INC., priority 2022, dated 2025):

Test system: CYP1A1
Assay: Induction of CYP1A1 mRNA expression in HepG2 (real-time PCR)
Assay type: cell-based, Human
Settings: HepG2, 1 μM, 24 hours, vs control (vehicle)
Protocol: In order to confirm target specificity of the compounds of an embodiment of the present invention prepared as above, it was confirmed whether the expression levels of CYP1A1 mRNA and CYP1A1 protein, which are AHR target genes, were increased.
After recovering HepG2 under culture in DMEM-fetal bovine serum (FBS) 10% medium and then confirming that the survival rate is 97% or more through trypan blue staining, the recovered product was centrifuged at a speed of 1200 rpm for 5 minutes at room temperature, and the cells were prepared by resuspending them in DMEM-fetal calf serum 10% medium at 3×10^5 cells/ml. Thereafter, the cells were dispensed onto a 60 mm dish by 3 ml, and each dish was treated with 50 μl of Compounds 6, 21, 32 and 39 at a concentration of 1 μM diluted in DMEM medium, and then cultured in a cell incubator (5% CO2 incubator) for 24 hours. As a control, 50 μl of 0.05% dimethylsulfoxide (DMSO)/DMEM medium was used for treatment.
The cultured cells were recovered to prepare an mRNA sample. […] From the separated RNA, cDNA was synthesized by reverse transcription, and the expression of CYP1A1 was confirmed through a real-time polymerase chain reaction (PCR) using iQ SYBR-Green Supermix (Bio-rad) in a CFX96 (Bio-rad) detection system. […] Herein, one (1) fold was set using the control.
The real-time polymerase chain reaction was performed under the conditions of 45 cycles at an annealing temperature of 58° C., wherein the following primer sequences were used.

## O=C(Cc1c[nH]c2ccc(Cl)cc12)Nc1nc2ccc(N3CCOCC3)cc2s1 [Compound 6, 2-(5-chloro-1H-indol-3-yl)-N-(6-morpholinobenzo[d]thiazol-2-yl)acetamide]
  CYP1A1 mRNA expression level: significantly induced
